Measured values published in patent publication US20230405144A1, “INDUCIBLE CELL DEATH SYSTEMS” (priority 2020, published 2023).

How the values were obtained:
Type in all cases: cell-based
[1] = tested on: HEK293T cells; assay: Mifepristone-induced dimerization of iCasp9: annexin V / Sytox Red staining by flow cytometry; conditions: cells transduced with SB03080, 10 uM Mifepristone, 24 hours
Procedure: Cell engineering and assessment: 24 hours before transduction 50,000 HEK293T cells were plated on a 24-well dish. Next day, cells were transduced with 50,000 pg of SB03080 (Progesterone receptor domain-Gly-Ser linker-iCasp9-IRES-red fluorescent protein) (based on p24 titer). Transduced cells were split into drug free media or media with 10 uM of Mifepristone 48 hours after transduction. 24 hours later, samples were stained for annexin V, a marker of apoptosis, and Sytox Red a live/dead stain and quantified by flow cytometry.
Cells were lentivirally transduced to express the toxin Caspase-9 with an IRES-red fluorescent protein (mKate) expressed under control of an SFFV promoter. The Caspase-9 protein includes a progesterone receptor domain. Upon Mifepristone addition, monomers of pro-apoptotic Caspase-9 oligomerize through binding of the progesterone receptor domain to Mifepristone (see FIG. 3A and System 1; chemical inducer of dimerization that activates the pro-cell death-inducing protein), as described in Example 1.

[2] = tested on: HEK293T cells; assay: Screening pro-apoptotic toxins: Incucyte confluency over 11 days
Procedure: (§1) Cell engineering and assessment: 5,000 HEK293T cells were plated in a 96-well flat bottom TC treated plate. Cells were transduced same day with 5,000 pg of specified constructs (based on p24 titer). Plates were transferred to the Incucyte where images of the cell layer were captured at 4 images per well every 2 hours over the course of 11 days with 10× objective. Confluency was calculated using the Incucyte basic pipeline software to map phase overlay. Cells were split down to 5,000 cells per well on day 4.
Cells were then lentivirally transduced to express the indicated cell-death inducing toxin.

[3] = tested on: HEK293T cell line TL06776 (SB04397); assay: ACP repression of toxins: Incucyte confluency over 7 days; conditions: BAX expressed in HEK293T cells that do not express the ACP
Procedure: as §1, with “Plate” for “Plates were”, “7” for “11”, “overlay in each well.” for “overlay. Cells were split down to 5,000 cells per well on day 4.”
Stable cell lines were generated to express an ACP including a transcriptional repressor. Cells were then lentivirally transduced to express the cell-death inducing toxin BAX or iCasp-9 under control of an ACP responsive promoter. The ACP transcriptional repressor includes a degron that in response to addition of an IMiD promotes ubiquitin pathway-mediated degradation of the peptides. Upon IMiD addition, degradation of the repressor leads to expression of the cell-death inducing peptide (see System 3; degron-tagged transcriptional repressor), as described in Example 1. […]
The cell line TL06776 was assessed following expression of degron domain-ZF-minKrab (SB04397) and percent confluency was quantified from pictures taken every 2 hours over course of 7 days in triplicate. […] Viability was further assessed as the ratio of confluency of a given sample relative to the confluency of non-transduced samples.

For CC#C[C@]1(O)CC[C@H]2[C@@H]3CCC4=CC(=O)CCC4=C3[C@@H](c3ccc(N(C)C)cc3)C[C@@]21C [Mifepristone], the “cell death (both apoptotic and by live/dead)” value [1] was “increased cell death”.

“Bax: cell-death inducing toxin expressed from constructs SB05403 / SB05406” was tested, and the “decline in viability of a heterogeneous population” value [2] was at most 70% and the decline in viability [3] was 70%.

B1: Smac/Diablo: cell-death inducing toxin expressed from constructs SB05405 / SB05408 (protein)
chain: MAALKSWLSRSVTSFFRYRQCLCVPVVANFKKRCFSELIRPWHKTVTIGFGVTLCAVPIAQKSEPHSLSSEALMRRAVSLVTDSTSTFLSQTTYALIEAITEYTKAVYTLTSLYRQYTSLLGKMNSEEEDEVWQVIIGARAEMTSKHQEYLKLETTWMTAVGLSEMAAEAAYQTGADQASITARNHIQLVKLQVEEVHQLSRKAETKLAEAQIEELRQKTQEEGEERAESEQEAYLRED
modifications: Description of Unknown: Smac/DIABLO sequence
notes: cell-death inducing toxin expressed from constructs SB05405 / SB05408
For B1, the “decline in viability of a heterogeneous population” value [2] was “did not”.
